From ChEMBL document CHEMBL1201862, “PubChem BioAssay data set” (2004)
Calls of active or inactive are those of the source.

Key:
[1] = target: T1, Probable nicotinate-nucleotide adenylyltransferase (Staphylococcus aureus (strain N315), UniProt P65502); assay type: functional, Staphylococcus aureus subsp. aureus N315; conditions: read-out: IC50_Mean;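 as to IC50 Mean: confirmatory dose-response retesting of NadD inhibitor hits first found in an ultra-high-throughput screen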
[2] = target: T1, Probable nicotinate-nucleotide adenylyltransferase; assay type: functional, Staphylococcus aureus subsp. aureus N315
[3] = tested on: BJ; assay: cells; assay type: functional, cell-based; conditions: Homo sapiens
[4] = target: DNA dC->dU-editing enzyme APOBEC-3A (Homo sapiens, UniProt P31941); assay: Dose Response confirmation of small molecule APOBEC3A DNA Deaminase Inhibitors via a fluorescence-based single-stranded DNA deaminase assay. [Related pubchem assays (depositor defined):AID493011, AID493024]; assay type: functional
Sequence of DNA dC->dU-editing enzyme APOBEC-3A (P31941 whole entry): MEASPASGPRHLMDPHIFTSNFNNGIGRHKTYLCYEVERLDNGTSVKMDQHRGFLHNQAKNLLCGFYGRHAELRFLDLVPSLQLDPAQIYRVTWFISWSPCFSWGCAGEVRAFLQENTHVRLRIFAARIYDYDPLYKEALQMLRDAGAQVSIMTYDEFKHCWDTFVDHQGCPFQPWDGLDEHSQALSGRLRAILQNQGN

[5] = DRD fibroblast viability loss – cell-based, non-viral oncogenic, luminescence, dose response (AID 1934); assay type: functional; conditions: Homo sapiens
[6] = loss of viability in HepG2 cells – cell-based, CellTiter-Glo, cherry-picked, cytotoxicity control for Shn3 inhibitor project, dose response (AID 624134); assay type: functional
[7] = target: T2, DNA repair protein RAD52 homolog (Homo sapiens, UniProt P43351); assay type: functional, biochemical
T2 sequence (P43351 whole entry): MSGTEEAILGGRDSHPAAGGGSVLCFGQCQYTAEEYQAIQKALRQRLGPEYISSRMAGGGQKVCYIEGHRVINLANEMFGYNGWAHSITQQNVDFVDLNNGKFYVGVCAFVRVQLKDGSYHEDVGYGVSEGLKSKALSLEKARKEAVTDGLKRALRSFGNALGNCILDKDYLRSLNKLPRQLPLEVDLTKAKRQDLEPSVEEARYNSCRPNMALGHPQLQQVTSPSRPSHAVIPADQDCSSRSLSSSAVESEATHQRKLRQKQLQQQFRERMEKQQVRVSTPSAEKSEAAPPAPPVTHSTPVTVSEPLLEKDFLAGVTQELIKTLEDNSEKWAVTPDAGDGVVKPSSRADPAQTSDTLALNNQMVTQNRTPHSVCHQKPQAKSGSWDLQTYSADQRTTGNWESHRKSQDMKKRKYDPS

[8] = target: DNA dC->dU-editing enzyme APOBEC-3G (Homo sapiens, UniProt Q9HC16); assay type: functional;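 also: Dose-response counterscreen measuring inhibition of APOBEC3G DNA deaminase activity, run while confirming APOBEC3A inhibitors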
Sequence of DNA dC->dU-editing enzyme APOBEC-3G (Q9HC16 whole entry): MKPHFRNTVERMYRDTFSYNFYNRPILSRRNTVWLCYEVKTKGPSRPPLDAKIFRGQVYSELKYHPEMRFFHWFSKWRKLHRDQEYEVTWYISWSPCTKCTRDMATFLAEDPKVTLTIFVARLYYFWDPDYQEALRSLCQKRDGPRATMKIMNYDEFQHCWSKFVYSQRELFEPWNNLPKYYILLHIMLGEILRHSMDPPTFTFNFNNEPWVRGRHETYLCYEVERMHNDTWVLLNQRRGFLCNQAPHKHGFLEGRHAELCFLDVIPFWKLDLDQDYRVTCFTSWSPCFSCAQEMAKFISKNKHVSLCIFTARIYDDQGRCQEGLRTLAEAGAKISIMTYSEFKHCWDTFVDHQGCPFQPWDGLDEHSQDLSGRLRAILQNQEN

[9] = tested on: BJ; assay: BJ-TERT-LT-ST fibroblast viability loss – cell-based, RAS-independent, luminescence, dose response (AID 1935); assay type: functional; conditions: Homo sapiens;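 also: BJ fibroblasts immortalized with TERT plus LT and ST oncogenes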
[10] = target: T3, Short transient receptor potential channel 4 (Mus musculus, UniProt Q9QUQ5); assay: block of DAMGO-driven TRPC4 calcium entry – cell-based, HEK293 TRPC4/mu-opioid, Fluo-4 calcium, dose response (AID 434942); assay type: functional;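 also: potency of inhibitors blocking the TRPC4 calcium response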
T3 sequence (Q9QUQ5 whole entry): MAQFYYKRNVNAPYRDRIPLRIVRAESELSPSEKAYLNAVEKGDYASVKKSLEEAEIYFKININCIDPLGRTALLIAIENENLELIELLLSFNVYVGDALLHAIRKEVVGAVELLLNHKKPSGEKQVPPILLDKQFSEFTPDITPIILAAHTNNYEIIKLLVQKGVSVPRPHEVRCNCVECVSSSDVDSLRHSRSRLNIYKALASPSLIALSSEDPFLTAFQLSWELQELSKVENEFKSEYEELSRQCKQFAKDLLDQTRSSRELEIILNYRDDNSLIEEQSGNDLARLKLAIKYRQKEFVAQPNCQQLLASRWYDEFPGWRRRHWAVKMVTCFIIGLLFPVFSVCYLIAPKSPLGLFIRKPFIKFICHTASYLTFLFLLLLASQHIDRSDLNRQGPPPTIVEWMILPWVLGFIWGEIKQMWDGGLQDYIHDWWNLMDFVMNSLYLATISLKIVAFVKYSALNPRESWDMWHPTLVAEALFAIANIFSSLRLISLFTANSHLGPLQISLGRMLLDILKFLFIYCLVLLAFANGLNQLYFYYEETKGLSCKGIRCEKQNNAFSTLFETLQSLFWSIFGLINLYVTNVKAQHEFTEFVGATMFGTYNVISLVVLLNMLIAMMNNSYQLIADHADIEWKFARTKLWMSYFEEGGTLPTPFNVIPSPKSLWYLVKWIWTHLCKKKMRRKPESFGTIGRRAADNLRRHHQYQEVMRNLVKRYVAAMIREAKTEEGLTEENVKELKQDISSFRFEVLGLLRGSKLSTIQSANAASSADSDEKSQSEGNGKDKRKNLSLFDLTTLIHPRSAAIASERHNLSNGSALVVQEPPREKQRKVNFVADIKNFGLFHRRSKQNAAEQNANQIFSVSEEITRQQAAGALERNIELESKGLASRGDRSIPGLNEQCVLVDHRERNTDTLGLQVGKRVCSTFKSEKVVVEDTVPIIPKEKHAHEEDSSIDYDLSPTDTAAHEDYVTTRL

[11] = tested on: BJ; assay: BJ-TERT fibroblast viability loss – cell-based, RAS-independent, luminescence, dose response (AID 1933); assay type: functional; conditions: Homo sapiens
[12] = non-specific 3'UTR reporter inhibition in Clone20-Shn3RL – cell-based, Renilla luciferase, cherry-picked, counter-screen for Shn3 inhibitor project, dose response (AID 624133); assay type: functional
[13] = reduction of Shn3 3'UTR-driven luciferase in osteoblasts – cell-based, Clone20 osteoblasts, firefly luciferase, cherry-picked, dose response (AID 624132); assay type: functional;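 also: firefly luciferase luminescence from reporter carrying the Shn3 3'UTR in osteoblasts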
[14] = target: T4, DNA repair and recombination protein RAD54-like (Homo sapiens, UniProt Q92698); assay: RAD54 Holliday junction migration blockers – biochemical, fluorescence, cherry-picked samples, dose series, confirmation (AID 651657); assay type: functional
T4 sequence (Q92698 whole entry): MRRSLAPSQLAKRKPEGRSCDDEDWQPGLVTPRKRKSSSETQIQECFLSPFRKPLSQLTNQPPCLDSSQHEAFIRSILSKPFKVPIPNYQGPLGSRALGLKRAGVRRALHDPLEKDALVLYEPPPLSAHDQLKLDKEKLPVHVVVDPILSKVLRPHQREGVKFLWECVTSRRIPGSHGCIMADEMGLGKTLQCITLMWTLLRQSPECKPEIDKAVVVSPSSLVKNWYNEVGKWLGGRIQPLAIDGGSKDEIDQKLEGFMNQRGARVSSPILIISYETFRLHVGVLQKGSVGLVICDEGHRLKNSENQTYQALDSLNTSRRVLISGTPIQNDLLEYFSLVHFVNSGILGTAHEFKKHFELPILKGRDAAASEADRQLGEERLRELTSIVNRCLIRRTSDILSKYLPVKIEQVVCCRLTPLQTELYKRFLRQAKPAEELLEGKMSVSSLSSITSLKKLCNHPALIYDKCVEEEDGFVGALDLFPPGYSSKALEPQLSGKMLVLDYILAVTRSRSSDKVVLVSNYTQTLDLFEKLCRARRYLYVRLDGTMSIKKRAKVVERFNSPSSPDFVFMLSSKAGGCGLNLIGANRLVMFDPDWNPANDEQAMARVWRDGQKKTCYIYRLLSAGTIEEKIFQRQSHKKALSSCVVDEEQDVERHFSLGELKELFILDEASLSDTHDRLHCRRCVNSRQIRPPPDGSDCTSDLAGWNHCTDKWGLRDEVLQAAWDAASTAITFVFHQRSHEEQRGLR

[15] = tested on: INS1; assay: INS-1E survival protection against cytokine death – cell-based, luminescence, retest, dose response (AID 449756); assay type: functional; conditions: Rattus norvegicus;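 also: cell death triggered by IL-1 beta plus TNF-alpha plus IFN-gamma mixture; protective hits raise ATP signal compared with cytokine alone wells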
[16] = tested on: BJ; assay: growth inhibition of engineered Ras-driven BJ cells – cell-based, alamar blue fluorescence, cherrypicked samples, dose response (AID 2631); assay type: functional; conditions: Homo sapiens;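 also: confirmatory dose-response assay in RAS-dependent BJ fibroblasts engineered with TERT, LT and ST, with cytotoxicity read by fluorescence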
[17] = target: T5, Long-chain-fatty-acid--AMP ligase FadD28 (Mycobacterium tuberculosis, UniProt P9WQ59); assay: Fluorescence polarization aasay to screen for inhibitors that compete for the binding of FadD28 to a bisubstrate Measured in Biochemical System Using Plate Reader - 2147-01_Inhibitor_Dose_CherryPick_Activity.; assay type: functional, Mycobacterium tuberculosis H37Rv
T5 sequence (P9WQ59 whole entry): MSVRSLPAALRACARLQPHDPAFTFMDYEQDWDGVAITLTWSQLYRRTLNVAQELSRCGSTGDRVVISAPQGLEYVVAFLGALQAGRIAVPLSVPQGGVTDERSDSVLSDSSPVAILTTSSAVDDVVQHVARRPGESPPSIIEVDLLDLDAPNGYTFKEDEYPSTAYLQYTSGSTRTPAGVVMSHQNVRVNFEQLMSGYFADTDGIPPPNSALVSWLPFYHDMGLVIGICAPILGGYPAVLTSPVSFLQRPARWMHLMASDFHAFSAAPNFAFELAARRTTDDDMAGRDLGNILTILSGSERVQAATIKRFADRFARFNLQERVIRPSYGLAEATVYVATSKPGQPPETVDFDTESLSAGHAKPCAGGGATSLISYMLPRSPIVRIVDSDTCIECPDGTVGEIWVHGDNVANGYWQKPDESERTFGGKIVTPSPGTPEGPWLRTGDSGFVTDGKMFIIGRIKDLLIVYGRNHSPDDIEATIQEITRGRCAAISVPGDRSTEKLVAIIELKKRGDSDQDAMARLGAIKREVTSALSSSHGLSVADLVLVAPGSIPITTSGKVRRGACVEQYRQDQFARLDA

[18] = bead-based luminescence quenchers, dual-tagged ARNT – biochemical, AlphaScreen, cherry-pick, artefact control for ARNT-TACC3 interaction inhibitor project, dose response (AID 651705); assay type: functional;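 also: AlphaScreen bead proximity signal that flags compounds interfering with the detection technology; potency reflects signal decrease which marks the compound as an assay artifact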
[19] = target: T6, Small ubiquitin-related modifier 1 (Homo sapiens, UniProt P63165); assay: SUMO1 protein interaction blockers, potency – biochemical, fluorescence polarization, uHTS hits, dose response (AID 624382); assay type: functional; conditions: read-out: IC50_Mean
T6 sequence (P63165 whole entry): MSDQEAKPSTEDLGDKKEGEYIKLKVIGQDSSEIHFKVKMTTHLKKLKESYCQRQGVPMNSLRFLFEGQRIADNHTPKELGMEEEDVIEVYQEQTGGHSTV

[20] = target: T6, Small ubiquitin-related modifier 1; assay: SUMO1 protein-protein binding blockers, potency – biochemical, FRET, dose response (AID 624383); assay type: functional; conditions: read-out: IC50_Mean
[21] = tested on: Vero; assay: viability of Vero cells under compound – cytotoxicity control for flavivirus capping enzyme inhibitors (AID 588742); assay type: functional; conditions: Chlorocebus sabaeus

T1 sequence (P65502 whole entry): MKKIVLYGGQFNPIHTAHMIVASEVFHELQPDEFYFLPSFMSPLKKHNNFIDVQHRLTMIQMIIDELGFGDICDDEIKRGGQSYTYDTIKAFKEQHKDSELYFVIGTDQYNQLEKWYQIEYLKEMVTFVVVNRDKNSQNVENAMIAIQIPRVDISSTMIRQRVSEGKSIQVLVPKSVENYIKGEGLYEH

O=C(NCc1ccco1)c1cccc2c1C(=O)c1ccc(/C=C/c3ccccc3)cc1S2(=O)=O
IC50 [1]: 29.3 µM (active)
IC50 [2]: 11.5 µM (active)

CN(C)CCCNc1c2ccccc2nc2ccccc12
EC50 [3]: 3.21 µM (active)
IC50 [4]: 18 µM (active)
EC50 [5]: 4.72 µM (active)
AC50 [6]: 7.82 µM (active)
AC50 [7]: 0.271 µM (active)
IC50 [8]: 58 µM (active)
EC50 [9]: 5.56 µM (active)
EC50 [10]: 1.33 µM (active)
EC50 [11]: 1.92 µM (active)
AC50 [12]: > 70 µM (inactive)
AC50 [13]: 3.22 µM (active)
AC50 [14]: 0.814 µM (active)
AC50 [15]: 0.533 µM (active)
EC50 [16]: 0.454 µM (inconclusive)

CCc1cccc2c(C(=O)CN3C(=O)C(=O)N(C4CCCC4)C3=O)c[nH]c12
AC50 [17]: 32.3 µM (active)

COC(=O)c1ccc(CSc2ccc3nnc(-c4ccccn4)n3n2)o1
AC50 [18]: 98.1 µM (active)

COc1cccc2sc(Nc3nc(-c4cc5ccccc5oc4=O)cs3)nc12
IC50 [19]: > 66.6 µM (inactive)
IC50 [20]: 2.42 µM (active)

CN1CCC[C@H]1CCNc1ccc2c(=O)c3ccccc3n(C)c2c1
AC50 [7]: 2.17 µM (active)
AC50 [14]: 5.81 µM (active)
CC50 [21]: 30.7 µM (active)
